# Marks after values point to notes of the source that are not given here.
# Assays:
# RSV F protein = format: in vivo; conditions: Table 4, BALB/c mice, intramuscular; for Log10(IgG titer), RNA (RSV-F), 2 weeks post 2nd immunization: 100 ng dose; for Log10(IgG titer), 1 ng RNA (RSV-F), 2 weeks post 2nd immunization: 1 ng vA375 replicon in LNP, days 0 and 21
# [1] = Encapsulation efficiency of RNA replicons (Quant-iT RiboGreen); format: physicochemical; conditions: LNP 40% cationic lipid, 10% DSPC, 48% cholesterol, 2% PEG-DMG; RNA replicon
# Description: Briefly, lipids were dissolved in ethanol (2m1), a RNA replicon was dissolved in buffer (2 ml, 100 mM sodium citrate, pH 6) and these were mixed with 2 ml of buffer followed by 1 hour of equilibration. The mixture was then dialized overnight against 1×PBS. The resulting product contained liposomes, with ˜70-95% encapsulation efficiency.
# The percentage of encapsulated RNA and RNA concentration were determined by Quant-iT RiboGreen RNA reagent kit (Invitrogen), following manufacturer's instructions. The ribosomal RNA standard provided in the kit was used to generate a standard curve. LNPs were diluted 10× or 100× in 1× TE buffer (from kit) before addition of the dye. Separately, LNPs were diluted 10× or 100× in 1× TE buffer containing 0.5% Triton X before addition of the dye (to disrupt the LNPs and thus to assay total RNA). Thereafter an equal amount of dye was added to each solution and then ˜180 μL of each solution after dye addition was loaded in duplicate into a 96 well tissue culture plate. The fluorescence (Ex 485 nm, Em 528 nm) was read on a microplate reader. All LNP formulations were dosed in vivo based on the encapsulated amount of RNA.
# [2] = Measurement of mRNA encapsulation in lipid nanoparticles (Quant-iT Ribogreen); format: physicochemical; conditions: LNP cationic lipid/DSPC/cholesterol/stealth lipid, N:P 4:1, leptin mRNA
# Description: All equipment and disposable supplies are certified free of RNase activity by the manufacturer or rendered RNase free by use of the RNaseZap reagent (LifeTechnologies). mRNA is encapsulated at a cationic lipid amine to mRNA phosphate (N:P) molar ratio of 4:1. Lipids (cationic lipid, DSPC, cholesterol and lipidated PEG or stealth lipid) are dissolved in ethanol. The molar ratios are 40:10:38:2, respectively. The mixture is sonicated briefly, then gently agitated for 5 minutes and then maintained at 37° C. until use. mRNA is exchanged into citrate buffer pH 5.8-6.0 by use of Amicon Ultra-15 centrifugal concentrators, and the final concentration is adjusted to 0.5 mg/ml and held at 37° C. until use. An equal volume of lipids in ethanol, mRNA in citrate buffer, and citrate buffer alone are drawn into disposable syringes. Tubing leading from syringes containing lipids and mRNA are attached to the T junction, and tubing leading from the syringe containing citrate buffer alone is paired with the tubing exiting the T-junction over a collection vessel containing a stir bar on an active stir plate. Syringes are placed in a syringe pump set to expel contents at a flow rate of 1 ml per minute.
# The pump is activated, and the collected mRNA in lipid nanoparticles is transferred to SnakeSkin dialysis tubing (10,000 MWCO, Thermo Scientific). Material is dialyzed against RNAse- and pyrogen-free 1× phosphate buffered saline overnight at 4° C.
# Percent encapsulation of mRNA in lipid nanoparticles is determined using the Quant-iT Ribogreen RNA Assay kit (Life Technologies). The LNP-mRNA suspension is assayed in buffer (mRNA outside the particle), and buffer plus Triton X-100 detergent (total mRNA). The difference calculated is the mRNA inside the particle. Prepare a 1000 ng/mL stock from the RNA provided in the kit and use this to generate a standard curve (0 ng/ml, 15.63-1000 ng/ml) in TE and TE+0.75% Triton X-100. Prepare LNP-mRNA samples in TE buffer and TE buffer+0.75% Triton X-100 with appropriate dilution so that reading is in the range of standard curve (400-2,000 fold). In a 384-well plate (Costar non-treated #3573) add 0.04 ml of standard (in duplicate) or sample (in triplicate) per well. Dilute Ribogreen reagent 240-fold in TE buffer and add 0.06 ml per well. Mix contents of wells and measure fluorescence (excitation=480 nm, emission=520 nm). Subtract background values (no RNA) from standard and test sample values and determine the concentrations of RNA in the samples using the standard curves. Determine the percent encapsulation of the sample by dividing the difference in concentrations between sample+triton and sample in buffer alone by the sample+triton concentration.
# [3] = Characterization of LNP formulations: Z average particle diameter and polydispersity index; format: physicochemical; conditions: LNP formulation; for Zav (nm): Z average particle diameter; for polydispersity: polydispersity index
# Text: The lipid nanoparticles have a size of about 1 to about 2,500 nm, about 1 to about 1,500 nm, about 1 to about 1,000 nm, in a sub-embodiment about 50 to about 600 nm, in a sub-embodiment about 50 to about 400 nm, in a sub-embodiment about 50 to about 250 nm, and in a sub-embodiment about 50 to about 150 nm. Unless indicated otherwise, all sizes referred to herein are the average sizes (diameters) of the fully formed nanoparticle, as measured by dynamic light scattering on a Malvern Zetasizer. The nanoparticle sample is diluted in phosphate buffered saline (PBS) so that the count rate is approximately 200-400 kcts. The data is presented as a weighted average of the intensity measure.
Compound,"Log10(IgG titer), RNA (RSV-F), 2 weeks post 2nd immunization (RSV F protein)",Encapsulation efficiency (RNA %) [1],% encapsulation (mRNA Leptin) [2],"Log10(IgG titer), 1 ng RNA (RSV-F), 2 weeks post 2nd immunization (RSV F protein)",Zav (nm) [3],polydispersity [3]
"CCCCC/C=C\C/C=C\CCCCCCCCOc1ccc(OCCCCCCCC/C=C\C/C=C\CCCCC)c(COC(=O)CCN(C)C)c1 [Example 2, 2,5-bis((9Z,12Z)-octadeca-9,12-dien-1-yloxy)benzyl 3-(dimethylamino)propanoate]",4.14 (100 ng dose)*,13.1%,–,–,–,–
"CCCCC/C=C\C/C=C\CCCCCCCCOc1ccc(OCCCCCCCC/C=C\C/C=C\CCCCC)c(COC(=O)OCCCN(C)C)c1 [Example 3, 2,5-bis((9Z,12Z)-octadeca-9,12-dienyloxy)benzyl 3-(dimethylamino)propyl Carbonate]",4.77 (100 ng dose)*,85.0%,–,–,–,–
CCCCCCCCCC(=O)OCCCCCCCCOc1ccc(OCCCCCCCCOC(=O)CCCCCCCCC)c(COC(=O)CCN(C)C)c1 [Example 5],–,–,59.0%,–,–,–
"CCCCCCCCCC(=O)OCCCCCCCCOc1ccc(OCCCCCCCCOC(=O)CCCCCCCCC)c(COC(=O)C2CCN(C)CC2)c1 [Example 6, ((2-(((1-methylpiperidine-4-carbonyl)oxy)methyl)-1,4-phenylene)bis(oxy))bis(octane-8,1-diyl) bis(decanoate)]",–,71.3%,–,4.25,–,–
"CCCCCCCCCC(=O)OCCCCCCCCOc1ccc(OCCCCCCCCOC(=O)CCCCCCCCC)c(COC(=O)CCCN(C)C)c1 [Example 7, ((2-(((4-(dimethylamino)butanoyl)oxy)methyl)-1,4-phenylene)bis(oxy))bis(octane-8,1-diyl) bis(decanoate)]",–,85.6%,95.4%,4.37,100.7 nm,0.096
"CCCCCCCCCC(=O)OCCCCCCCCOc1ccc(OCCCCCCCCOC(=O)CCCCCCCCC)c(COC(=O)C2CCN(C(C)C)CC2)c1 [Example 9, ((2-(((1-isopropylpiperidine-4-carbonyl)oxy)methyl)-1,4-phenylene)bis(oxy))bis(octane-8,1-diyl) bis(decanoate)]",–,69.1%,–,–,182.6 nm,0.369
"CCCCCCCCCC(=O)OCCCCCCCCOc1ccc(OCCCCCCCCOC(=O)CCCCCCCCC)c(COC(=O)OCCCN(C)C)c1 [Example 12, ((2-((((3-(dimethylamino)propoxy)carbonyl)oxy)methyl)-1,4-phenylene)bis(oxy))bis(octane-8,1-diyl) bis(decanoate)]",–,89.8%,–,4.40,97.3 nm,0.116
"CCCCCCCCCC(=O)OCCCCCCCCOc1ccc(OCCCCCCCCOC(=O)CCCCCCCCC)c(COC(=O)OCCCN(CC)CC)c1 [Example 13, ((2-((((3-(diethylamino)propoxy)carbonyl)oxy)methyl)-1,4-phenylene)bis(oxy))bis(octane-8,1-diyl) bis(decanoate)]",–,92.1%,–,–,–,–
"CCCCC/C=C\C/C=C\CCCCCCCCOc1cc(COC(=O)OCCCN(C)C)c(OCCCCCCCC/C=C\C/C=C\CCCCC)cc1C [Example 14, 3-(dimethylamino)propyl 4-methyl-2,5-bis((9Z,12Z)-octadeca-9,12-dien-1-yloxy)benzyl Carbonate]",–,78.3%,77.9%,3.85,127.7 nm,0.102
"CCCCC/C=C\C/C=C\CCCCCCCCOc1cc(COC(=O)OCCCCN(C)C)c(OCCCCCCCC/C=C\C/C=C\CCCCC)cc1C [Example 15, 4-(dimethylamino)butyl 4-methyl-2,5-bis((9Z,12Z)-octadeca-9,12-dienyloxy)benzyl Carbonate]",–,82.6%,–,2.81,138.8 nm,0.210
"CCCCCCCCOC(CCC(=O)OCCCOc1ccc(OCCCOC(=O)CCC(OCCCCCCCC)OCCCCCCCC)c(COC(=O)CCCN(C)C)c1)OCCCCCCCC [Example 20, ((2-(((4-(Dimethylamino)butanoyl)oxy)methyl)-1,4-phenylene)bis(oxy))bis(propane-3,1-diyl) bis(4,4-bis(octyloxy)butanoate)]",–,–,88.4%,–,–,–
"CCCCCCCCOC(CCC(=O)OCCCCCOc1ccc(OCCCCCOC(=O)CCC(OCCCCCCCC)OCCCCCCCC)c(COC(=O)CCCN(C)C)c1)OCCCCCCCC [Example 21, ((2-(((4-(Dimethylamino)butanoyl)oxy)methyl)-1,4-phenylene)bis(oxy))bis(pentane-5,1-diyl) bis(4,4-bis(octyloxy)butanoate)]",–,–,79.8%,–,–,–
"CCCCCCCCOC(CCC(=O)OCCCCCOc1ccc(OCCCCCOC(=O)CCC(OCCCCCCCC)OCCCCCCCC)c(COC(=O)CCCN(CC)CC)c1)OCCCCCCCC [Example 22, ((2-(((4-(diethylamino)butanoyl)oxy)methyl)-1,4-phenylene)bis(oxy))bis(pentane-5,1-diyl) bis(4,4-bis(octyloxy)butanoate)]",–,–,86.0%,–,–,–
"CCCCCCCCOC(CCC(=O)OCCCCCOc1ccc(OCCCCCOC(=O)CCC(OCCCCCCCC)OCCCCCCCC)c(COC(=O)C2(C)CCN(C)CC2)c1)OCCCCCCCC [Example 23, ((2-(((1,4-Dimethylpiperidine-4-carbonyl)oxy)methyl)-1,4-phenylene)bis(oxy))bis(pentane-5,1-diyl) bis(4,4-bis(octyloxy)butanoate)]",–,–,84.3%,–,–,–
"CCCCCCCCCC(=O)OCCCCCCCCOc1ccc(COC(=O)C2(C)CCN(C)CC2)c(OCCCCCCCCOC(=O)CCCCCCCCC)c1 [Example 26, ((4-(((1,4-Dimethylpiperidine-4-carbonyl)oxy)methyl)-1,3-phenylene)bis(oxy))bis(octane-8,1-diyl) bis(decanoate)]",–,–,90.8%,–,–,–
"CCCCCCCCCC(=O)OCCCCCCCCOc1ccc(COC(=O)CCCN(C)C)c(OCCCCCCCCOC(=O)CCCCCCCCC)c1 [Example 27, ((4-(((4-(Dimethylamino)butanoyl)oxy)methyl)-1,3-phenylene)bis(oxy))bis(octane-8,1-diyl) bis(decanoate)]",–,–,95.2%,–,–,–
"CCCCCCCCCC(=O)OCCCCCCCCOc1ccc(COC(=O)CCCN(CC)CC)c(OCCCCCCCCOC(=O)CCCCCCCCC)c1 [Example 28, ((4-(((4-(Diethylamino)butanoyl)oxy)methyl)-1,3-phenylene)bis(oxy))bis(octane-8,1-diyl) bis(decanoate)]",–,–,93.6%,–,–,–

# Reference: US10844002B2, “Lipids and lipid compositions for the delivery of active agents” (priority 2014, dated 2020)
